The target of this experiment is T1, Protein deacetylase HDAC6 (Homo sapiens) (UniProt Q9UBN7).
T1 sequence (whole entry): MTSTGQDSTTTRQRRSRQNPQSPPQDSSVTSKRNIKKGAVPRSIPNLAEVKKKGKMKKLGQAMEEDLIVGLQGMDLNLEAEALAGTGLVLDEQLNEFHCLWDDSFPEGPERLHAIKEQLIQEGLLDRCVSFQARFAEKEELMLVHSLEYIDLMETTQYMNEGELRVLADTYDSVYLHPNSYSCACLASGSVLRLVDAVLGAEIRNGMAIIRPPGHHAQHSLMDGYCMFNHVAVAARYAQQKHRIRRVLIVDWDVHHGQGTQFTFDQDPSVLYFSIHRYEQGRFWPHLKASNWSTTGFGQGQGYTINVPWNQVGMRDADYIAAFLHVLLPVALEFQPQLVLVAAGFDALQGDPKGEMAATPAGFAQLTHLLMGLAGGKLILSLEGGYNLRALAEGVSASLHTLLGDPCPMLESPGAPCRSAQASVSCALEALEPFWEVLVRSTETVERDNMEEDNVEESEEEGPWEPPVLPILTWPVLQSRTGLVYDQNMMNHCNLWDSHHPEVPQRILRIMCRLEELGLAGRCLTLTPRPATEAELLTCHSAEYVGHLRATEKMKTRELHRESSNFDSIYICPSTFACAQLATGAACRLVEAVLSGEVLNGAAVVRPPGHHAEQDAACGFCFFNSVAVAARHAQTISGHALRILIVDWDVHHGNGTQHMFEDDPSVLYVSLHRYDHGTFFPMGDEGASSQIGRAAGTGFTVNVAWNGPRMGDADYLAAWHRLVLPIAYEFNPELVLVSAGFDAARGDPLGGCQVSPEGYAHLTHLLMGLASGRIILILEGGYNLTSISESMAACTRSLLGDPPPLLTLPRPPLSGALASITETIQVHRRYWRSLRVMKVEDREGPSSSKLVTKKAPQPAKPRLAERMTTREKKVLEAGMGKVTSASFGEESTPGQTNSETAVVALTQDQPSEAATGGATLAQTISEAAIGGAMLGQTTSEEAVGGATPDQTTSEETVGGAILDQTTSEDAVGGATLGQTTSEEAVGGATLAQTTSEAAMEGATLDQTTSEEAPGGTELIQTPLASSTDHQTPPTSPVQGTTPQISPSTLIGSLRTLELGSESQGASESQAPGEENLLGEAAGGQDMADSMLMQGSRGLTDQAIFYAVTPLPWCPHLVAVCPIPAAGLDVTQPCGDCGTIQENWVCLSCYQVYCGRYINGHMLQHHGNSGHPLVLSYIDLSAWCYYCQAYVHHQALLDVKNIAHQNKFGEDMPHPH
Put plainly: Inhibition of full length HDAC6 (unknown origin) extracted from Sf9 insect cells at 10 uM preincubated for 60 mins followed by substrate addition and measured after 20 mins by luminescence based HDAC-GloTM I/II assay relative to control. The experiment is classed as cell-free. To be noted: time 80.0 min.

Turning to `O=C1c2cc(-c3nnc(C(F)F)o3)ccc2CN1[C@H](C1CC1)[C@@H](O)c1ncccn1`, the inhibition was determined as 96%.

With `O=C1c2cc(-c3nnc(C(F)F)o3)ccc2CN1[C@H](c1ccc(F)cc1)[C@@H](O)c1ccc(F)nc1`, the inhibition came to 99%.

Consider `O=C1c2cc(-c3nnc(C(F)F)o3)ccc2CN1[C@H](C1CC1)[C@@H](O)c1ccc(F)cn1`, for which the inhibition stood at 100%.

As for `O=C1c2cc(-c3nnc(C(F)F)o3)ccc2CN1[C@H](c1cccnn1)[C@@H](O)c1cccc(Cl)c1`, the inhibition turned out to be 101%.

For the compound `O=C1c2cc(-c3nnc(C(F)F)o3)ccc2CN1[C@H](c1ccccn1)[C@@H](O)c1ccc(C(F)(F)F)cn1`, the inhibition came to 99%.

In the case of `O=C1c2cc(-c3nnc(C(F)F)o3)ccc2CN1[C@H](C1CCC(F)(F)CC1)[C@@H](O)c1ccc(F)nc1` (racemic), the inhibition turned out to be 100%.

As to `O=C1c2cc(-c3nnc(C(F)F)o3)ccc2CN1[C@H](C1CC1)[C@@H](O)c1cccc(F)c1`, the inhibition came out at 100%.

Consider `O=C1c2cc(-c3nnc(C(F)F)o3)ccc2CN1[C@H](c1ccccn1)[C@@H](O)c1ccccn1`, for which the inhibition worked out at 101%.

As to `O=C1c2cc(-c3nnc(C(F)F)o3)ccc2CN1[C@H](C1CC1)[C@@H](O)c1ccccn1`, the inhibition was determined as 100%.

On to `O=C1c2cc(-c3nnc(C(F)F)o3)ccc2CN1[C@H](c1cnccn1)[C@@H](O)c1cccc(Cl)c1`, for which the inhibition stood at 100%.

Regarding `O=C1c2cc(-c3nnc(C(F)F)o3)ccc2CN1[C@H](c1ccc(F)c(F)c1)[C@@H](O)c1ccccn1`, the inhibition was found to be 99%.

With `O=C1c2cc(-c3nnc(C(F)F)o3)ccc2CN1[C@@H](c1ccccn1)[C@H](O)c1ccccn1`, the inhibition came to 100%.

Turning to `O=C1c2cc(-c3nnc(C(F)F)o3)ccc2CN1[C@H](c1ccc(F)cc1)[C@@H](O)C1CCOCC1` (racemic), the inhibition amounted to 99%.

For the compound `O=C1c2cc(-c3nnc(C(F)F)o3)ccc2CN1[C@H](c1cccc(F)c1)[C@@H](O)c1ccccn1` (racemic), the inhibition amounted to 100%.

By inhibition is commonly meant the drop in the measured response relative to a control, in per cent.

The values above are taken from ChEMBL document CHEMBL6153156, “Potential of Histone Deacetylase 6 Inhibitors as a Treatment of Neurodegenerative Diseases” (ACS Med Chem Lett, 2025).
